Key:
SGLT2 = molecular target: T1, SGLT2 (Homo sapiens, UniProt P31639); test: 14C-AMG uptake in BHK cells transfected with SGLT2; type: cell-based; conditions: 37° C., 90 min
T1 construct: expressed in transfected cells
T1 sequence (P31639 1-672): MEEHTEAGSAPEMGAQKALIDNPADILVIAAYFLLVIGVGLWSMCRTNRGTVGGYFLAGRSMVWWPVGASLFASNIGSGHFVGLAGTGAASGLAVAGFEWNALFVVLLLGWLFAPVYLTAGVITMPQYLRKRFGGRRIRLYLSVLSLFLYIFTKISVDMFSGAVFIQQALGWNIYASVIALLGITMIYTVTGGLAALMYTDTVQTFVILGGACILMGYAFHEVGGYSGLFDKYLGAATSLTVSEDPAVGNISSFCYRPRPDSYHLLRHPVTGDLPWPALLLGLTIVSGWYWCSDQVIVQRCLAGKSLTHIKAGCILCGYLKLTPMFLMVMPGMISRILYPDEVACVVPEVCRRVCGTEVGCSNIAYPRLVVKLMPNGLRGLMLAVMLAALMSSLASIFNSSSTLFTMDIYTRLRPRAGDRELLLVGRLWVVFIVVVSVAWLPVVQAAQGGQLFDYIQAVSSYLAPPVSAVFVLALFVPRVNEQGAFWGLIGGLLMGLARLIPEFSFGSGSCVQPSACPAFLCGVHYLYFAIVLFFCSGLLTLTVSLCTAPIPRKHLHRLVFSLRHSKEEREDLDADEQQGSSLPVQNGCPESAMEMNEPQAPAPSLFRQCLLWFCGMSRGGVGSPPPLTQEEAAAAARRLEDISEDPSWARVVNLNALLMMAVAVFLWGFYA
From the text: (§1) The compounds can be tested on their SGLT inhibition properties by means of BHK cells expressing SGLT1 and SGLT2. The production of the cells and the testing can be carried out as described below.
To construct the SGLT2 expression vector (KL224), the SLC5A2 gene (homologous to NM_003041) was amplified from a cDNA library using standard PCR technology and cloned over NheI/XhoI sites into PCI-neo expression vector (Promega) containing neomycin as a selection marker. In this vector, transcription uses the enhancer/promoter of human cytomegalovirus and the SV40 polyadenylation signal.
(§2) The final vector KL224 together with an additional vector containing a dihydrofolate reductase gene as a selection marker was introduced into cells. Transfection into BHK21 cells (ATCC CCL-10), cultivated in DMEM medium (GIBCO/BRL), supplemented with 10% foetal calf serum (FCS) and 20 mM glutamine, was carried out using calcium phosphate transfections according to Graham, F. L. and van der Ebb, A. J. (1973), Virology 52: 456 with 5-20 μg of uncut plasmids for 10^7 cells. Stable transfectants were selected in medium containing 1 mg/ml of G418 (GIBCO/BRL) and 20-5000 nM methotrexate as final concentration, where only cells which expressed the neomycin gene and overexpressed the dhfr gene were able to grow. After growth for 2-3 weeks, the cells were cloned (0.5 cells/well) and the clones were investigated for SGLT expression in the radioactive uptake test,
The uptake of ^14C-α-methyl-D-glucopyranoside (AMG) in, for example, Xenopus oocytes injected with the corresponding cRNA has been described in principle (for example Wen-Sen Lee et al. (1994), J. Biol. Chem. 269, 12032-12039; Guofeng You et al. (1995), J. Biol. Chem. 270, 29365-29371).
(§3) A 96-well cell-based assay was developed and adapted to HIS requirements:
(§4) BHK cells (transfected with SGLT1 or SGLT2) were seeded into 96-well microtitre plates (Cultureplates, Perkin Elmer). After at least 24 h, medium was removed and the cell layer was washed with assay buffer (140 mM NaCl, 2 mM KCl, 1 mM CaCl2, 1 mM MgCl2, 10 mM HEPES, 5 mM Tris, adjusted with 1 M KOH to pH 7.4), After addition of 40 μl of assay buffer, 50 μl of AMG ([…] for SGLT1 and 2 mM for SGLT2) in the presence or absence of compounds, the cells were incubated in a total volume of 100 μl at 37° C. for 90 min. Supernatant was removed by suction and discarded. The cells were washed and lysed by addition of 50 μl of water. After 10 min at room temperature, 200 μl of Microscint 40 (Perkin Elmer) were added. The radioactivity was counted in a Topcount microplate scintillation counter (Perkin Elmer). The non-specific uptake was determined in sodium-free assay buffer (266 mM sucrose, 2 mM KCl, 1 mM CaCl2, 1 mM MgCl2, 10 mM HEPES, 5 mM Tris, adjusted to pH 7.4 using 1 M KOH).

SGLT1 = molecular target: T2, SGLT1 (Homo sapiens, UniProt P13866); test: 14C-AMG uptake in BHK cells transfected with SGLT1; type: cell-based; conditions: 37° C., 90 min
T2 construct: expressed in transfected cells
T2 sequence (P13866 1-664): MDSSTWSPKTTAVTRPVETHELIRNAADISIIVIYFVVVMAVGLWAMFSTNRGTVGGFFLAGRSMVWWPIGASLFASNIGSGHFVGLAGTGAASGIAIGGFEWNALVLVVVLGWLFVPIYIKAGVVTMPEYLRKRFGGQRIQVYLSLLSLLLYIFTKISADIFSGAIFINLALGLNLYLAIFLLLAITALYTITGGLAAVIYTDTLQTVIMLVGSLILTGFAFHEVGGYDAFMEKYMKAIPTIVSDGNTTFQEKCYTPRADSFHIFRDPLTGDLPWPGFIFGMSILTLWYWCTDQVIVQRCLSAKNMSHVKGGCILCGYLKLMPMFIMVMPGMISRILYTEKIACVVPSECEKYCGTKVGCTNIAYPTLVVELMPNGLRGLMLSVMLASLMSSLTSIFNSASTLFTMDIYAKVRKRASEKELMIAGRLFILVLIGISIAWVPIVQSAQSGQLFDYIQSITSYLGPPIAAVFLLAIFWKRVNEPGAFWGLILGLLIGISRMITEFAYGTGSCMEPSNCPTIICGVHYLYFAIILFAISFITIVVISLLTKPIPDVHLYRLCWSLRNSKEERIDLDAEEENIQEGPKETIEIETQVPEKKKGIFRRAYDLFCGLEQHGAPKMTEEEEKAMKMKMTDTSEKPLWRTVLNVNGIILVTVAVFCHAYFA
From the text: as §1
To construct the SGLT1 expression vector (KL225), the SLC5A1 gene (homologous to NM_000343) was amplified from a cDNA library using standard PCR technology and cloned over NheI/XhoI sites into the cDNA3.1 expression vector (Invitrogen) containing neomycin as a selection marker. In this vector, transcription uses the enhancer/promoter of human cytomegalovirus.
as §2, with “KL225” for “KL224”, “radioactivity” for “radioactive”, “test. […]” for “test,”
as §3, §4

SMILES	IC50 (SGLT2) [nM]	IC50 (SGLT1) [nM]
Cc1cccc(C)c1Nc1c(-c2ccccc2-c2cccc(C(N)=O)c2)nc2ccccn12 [Compound A4]	1000 to 10000	1000 to 10000
Cc1cccc(C)c1Nc1c(-c2ccccc2-c2nnc(N(C)C)o2)nc2ccc(F)cn12 [Compound C4]	10 to 1000	1000 to 10000
CNc1nnc(-c2c(-c3nc4ccc(F)cn4c3Nc3c(C)cccc3C)c3ccccc3n2C)o1 [Compound C12, (2,6-Dimethylphenyl)-{6-fluoro-2-[1-methyl-2-(5-methylamino-1,3,4-oxadiazol-2-yl)-1H-indol-3-yl]imidazo[1,2-a]pyridin-3-yl}amine]	10 to 1000	1000 to 10000
CNc1nnc(-c2sc3ccccc3c2-c2nc3ccc(F)cn3c2Nc2c(C)cccc2C)o1 [Compound C13, (2,6-Dimethylpheny1)-{6-fluoro-2-[2-(5-methylamino-1,3,4-oxadiazol-2-y1)-benzo[b]thiophen-3-yl]imidazo[1,2-a]pyridin-3-yl}amine]	10 to 1000	10 to 1000
Cc1cccc(C)c1Nc1c(-c2c(-n3cccn3)cccc2-n2cccn2)nc2ccc(F)cn12 [Compound A5, (2,6-Dimethylphenyl)-[2-(2,6-dipyrazol-1-yl-phenyl)-6-fluoroimidazo[1,2-a]pyridin-3-yl]-amine]	1000 to 10000	1000 to 10000
Cc1cccc(C)c1Nc1c(-c2ccccc2-c2ccc([N+](=O)[O-])s2)nc2ccc(F)cn12 [Compound A8]	1000 to 10000	1000 to 10000
Cc1nc(-c2ccccc2-c2nc3ccc(F)cn3c2Nc2c(C)cccc2C)no1 [Compound A10]	10 to 1000	1000 to 10000
Cc1cccc(C)c1Nc1c(-c2ccccc2-c2cccnc2)nc2ccc(F)cn12 [Compound A11]	10 to 1000	1000 to 10000
Cc1cccc(C)c1Nc1c(-c2ccccc2-c2cccc(C(=O)O)c2)nc2ccccn12 [Compound A2, 2′-[3-(2,6-Dimethylphenylamino)imidazo [1,2-a]pyridin-2-yl]biphenyl-3-carboxylic acid]	> 10000	> 10000
Cc1cccc(C)c1Nc1c(-c2ccccc2-c2cccs2)nc2ccc(F)cn12 [Compound A3]	1000 to 10000	> 10000
Cc1cccc(C)c1Nc1c(-c2c(Cl)cccc2-c2nnc(N)o2)nc2ccc(F)cn12 [Compound B2]	10 to 1000	> 10000
Cc1cccc(C)c1Nc1c(-c2ccccc2-c2nnc(N)o2)nc2ccc(F)cn12 [Compound B1, {2-[2-(5-amino-1,3,4-oxadiazol-2-yl)phenyl]-6-fluoroimidazo[1,2-a]pyridin-3-yl}-(2,6-dimethylphenyl)amine]	10 to 1000	> 10000
CNc1nnc(-c2ccccc2-c2nc3ccc(F)cn3c2Nc2c(C)cccc2C)o1 [Compound C1, (2,6-dimethylphenyl)-{6-fluoro-2-[2-(5-methylamino-1,3,4-oxadiazol-2-yl)phenyl]imidazo[1,2-a]pyridin-3-yl}amine]	10 to 1000	1000 to 10000
Cc1cccc(C)c1Nc1c(-c2ccccc2-n2cccn2)nc2ccc(F)cn12 [Compound A6]	1000 to 10000	> 10000
Cc1cccc(C)c1Nc1c(-c2ccccc2-c2ccc(C(N)=O)o2)nc2ccc(F)cn12 [Compound A7]	1000 to 10000	1000 to 10000
Cc1cccc(C)c1Nc1c(-c2ccccc2-c2nccs2)nc2ccc(F)cn12 [Compound A1, (2,6-dimethylphenyl)-[6-fluoro-2-(2-thiazol-2-ylphenyl)-imidazo[1,2-a]pyridin-3-yl]amine]	> 10000	> 10000
CNc1nnc(-c2cc(OC)c(OC)cc2-c2nc3ccc(F)cn3c2Nc2c(C)cc(F)cc2C)o1 [Compound C3]	1000 to 10000	> 10000
CCNc1nnc(-c2ccccc2-c2nc3ccc(F)cn3c2Nc2c(C)cccc2C)o1 [Compound C5]	10 to 1000	1000 to 10000
Cc1cccc(C)c1Nc1c(-c2ccccc2-c2cncnc2)nc2ccccn12 [Compound A9]	10 to 1000	1000 to 10000
CNc1nnc(-c2cc(O)c(O)cc2-c2nc3ccc(F)cn3c2Nc2c(C)cc(F)cc2C)o1 [Compound C2]	1000 to 10000	> 10000

— patent publication US8153649B2, “3-aminoimidazo 1,2-A pyridine derivatives having an SGLT1- and SGLT2-inhibiting action for the treatment of type 1 and type 2 diabetes” (Merck Patent Gesellschaft mit beschrankter Haftung, priority 2006, dated 2012)
